Experimental data published in PubChem BioAssay (NCI).
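Tested at 5 concentrations; 48 h exposure; 96-well plates; endpoints linearly interpolated, else capped at highest concentration. TGI marks complete inhibition of growth.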

What was measured:
Experiment in all cases: NCI tumour cell line growth inhibition, 48 h
SK-MEL-2 melanoma = test system: SK-MEL-2 melanoma
DU-145 prostate = test system: DU-145 prostate
SR leukemia = test system: SR leukemia
RPMI-8226 leukemia = test system: RPMI-8226 leukemia
M14 melanoma = test system: M14 melanoma
HS 578T breast = test system: HS 578T breast
NCI-H226 lung = test system: NCI-H226 lung
HOP-92 NSCLC = test system: HOP-92 NSCLC
SF-539 CNS = test system: SF-539 CNS
EKVX NSCLC = test system: EKVX NSCLC
UACC-62 melanoma = test system: UACC-62 melanoma
HCT-116 colon = test system: HCT-116 colon
KM12 colon = test system: KM12 colon
ACHN renal = test system: ACHN renal
OVCAR-5 ovarian = test system: OVCAR-5 ovarian
UO-31 renal = test system: UO-31 renal
SNB-19 CNS = test system: SNB-19 CNS
NCI-H460 lung = test system: NCI-H460 lung
SW-620 colon = test system: SW-620 colon
HT29 colon = test system: HT29 colon
RXF 393 renal = test system: RXF 393 renal
MALME-3M melanoma = test system: MALME-3M melanoma
NCI-H23 lung = test system: NCI-H23 lung
CCRF-CEM leukemia = test system: CCRF-CEM leukemia
CAKI-1 renal = test system: CAKI-1 renal
HCC-2998 colon = test system: HCC-2998 colon
COLO 205 colon = test system: COLO 205 colon
TK-10 renal = test system: TK-10 renal
OVCAR-3 ovarian = test system: OVCAR-3 ovarian
NCI-H522 lung = test system: NCI-H522 lung
OVCAR-4 ovarian = test system: OVCAR-4 ovarian
MDA-MB-231 breast = test system: MDA-MB-231 breast
SF-295 CNS = test system: SF-295 CNS
SK-MEL-5 melanoma = test system: SK-MEL-5 melanoma
T-47D breast = test system: T-47D breast
K-562 leukemia = test system: K-562 leukemia
UACC-257 melanoma = test system: UACC-257 melanoma
SK-MEL-28 melanoma = test system: SK-MEL-28 melanoma
SNB-75 CNS = test system: SNB-75 CNS
SF-268 CNS = test system: SF-268 CNS
IGROV1 ovarian = test system: IGROV1 ovarian
786-0 renal = test system: 786-0 renal
HOP-62 NSCLC = test system: HOP-62 NSCLC
SK-OV-3 ovarian = test system: SK-OV-3 ovarian
MOLT-4 leukemia = test system: MOLT-4 leukemia
NCI/ADR-RES ovarian = test system: NCI/ADR-RES ovarian
OVCAR-8 ovarian = test system: OVCAR-8 ovarian
LOX IMVI melanoma = test system: LOX IMVI melanoma
A498 renal = test system: A498 renal
SN12C renal = test system: SN12C renal
MDA-MB-435 = test system: MDA-MB-435
MDA-N = test system: MDA-N
HCT-15 colon = test system: HCT-15 colon
BT-549 breast = test system: BT-549 breast
U251 CNS = test system: U251 CNS
HL-60(TB) leukemia = test system: HL-60(TB) leukemia
A549 NSCLC = test system: A549 NSCLC
PC-3 prostate = test system: PC-3 prostate
MCF7 breast = test system: MCF7 breast

For COc1ccc2c(c1)O[C@@H]1[C@@H](OC3OC(CO)C(O)C(O)C3O)Oc3cc(OC)c(OC)cc3[C@]1(O)C2=O (some centres undefined), the TGI (SK-MEL-2 melanoma) was over 100 µM, the TGI (DU-145 prostate) was over 100 µM and the TGI (SR leukemia) was over 100 µM. For the same compound, the TGI (RPMI-8226 leukemia) was over 100 µM, the TGI (M14 melanoma) was over 100 µM and the TGI (HS 578T breast) was over 100 µM. The TGI (NCI-H226 lung) was over 100 µM, the TGI (HOP-92 NSCLC) was over 100 µM and the TGI (SF-539 CNS) was over 100 µM. It also gave a TGI (EKVX NSCLC) of over 100 µM, a TGI (UACC-62 melanoma) of over 100 µM and a TGI (HCT-116 colon) of over 100 µM. The TGI (KM12 colon) was over 100 µM, the TGI (ACHN renal) was over 100 µM and the TGI (OVCAR-5 ovarian) was over 100 µM. The TGI (UO-31 renal) was over 100 µM, the TGI (SNB-19 CNS) was over 100 µM and the TGI (NCI-H460 lung) was over 100 µM. It also gave a TGI (SW-620 colon) of over 100 µM, a TGI (HT29 colon) of over 100 µM and a TGI (RXF 393 renal) of over 100 µM. It also gave a TGI (MALME-3M melanoma) of over 100 µM, a TGI (NCI-H23 lung) of over 100 µM and a TGI (CCRF-CEM leukemia) of over 100 µM. For the same compound, the TGI (CAKI-1 renal) was over 100 µM, the TGI (HCC-2998 colon) was over 100 µM and the TGI (COLO 205 colon) was over 100 µM. The TGI (TK-10 renal) was over 100 µM, the TGI (OVCAR-3 ovarian) was over 100 µM and the TGI (NCI-H522 lung) was over 100 µM. For the same compound, the TGI (OVCAR-4 ovarian) was over 100 µM, the TGI (MDA-MB-231 breast) was over 100 µM and the TGI (SF-295 CNS) was over 100 µM. It also gave a TGI (SK-MEL-5 melanoma) of over 100 µM, a TGI (T-47D breast) of over 100 µM and a TGI (K-562 leukemia) of over 100 µM. It also gave a TGI (UACC-257 melanoma) of over 100 µM, a TGI (SK-MEL-28 melanoma) of over 100 µM and a TGI (SNB-75 CNS) of over 100 µM. It also gave a TGI (SF-268 CNS) of over 100 µM, a TGI (IGROV1 ovarian) of over 100 µM and a TGI (786-0 renal) of over 100 µM. The TGI (HOP-62 NSCLC) was over 100 µM, the TGI (SK-OV-3 ovarian) was over 100 µM and the TGI (MOLT-4 leukemia) was over 100 µM. The TGI (NCI/ADR-RES ovarian) was over 100 µM, the TGI (OVCAR-8 ovarian) was over 100 µM and the TGI (LOX IMVI melanoma) was over 100 µM. For the same compound, the TGI (A498 renal) was over 100 µM, the TGI (SN12C renal) was over 100 µM and the TGI (MDA-MB-435) was over 100 µM. The TGI (MDA-N) was over 100 µM, the TGI (HCT-15 colon) was over 100 µM and the TGI (BT-549 breast) was over 100 µM. The TGI (U251 CNS) was over 100 µM, the TGI (HL-60(TB) leukemia) was over 100 µM and the TGI (A549 NSCLC) was over 100 µM. For the same compound, the TGI (PC-3 prostate) was over 100 µM.

Work on COc1ccc(NS(=O)c2ccc(Cl)cc2)cc1 (centres undefined) yielded a TGI (SK-MEL-2 melanoma) of 70 µM, a TGI (DU-145 prostate) of over 100 µM and a TGI (SR leukemia) of over 100 µM. The TGI (RPMI-8226 leukemia) was over 100 µM, the TGI (MCF7 breast) was over 100 µM and the TGI (M14 melanoma) was over 100 µM. The TGI (HS 578T breast) was over 100 µM, the TGI (NCI-H226 lung) was 81.1 µM and the TGI (SF-539 CNS) was 30 µM. For the same compound, the TGI (EKVX NSCLC) was over 100 µM, the TGI (UACC-62 melanoma) was 39.9 µM and the TGI (HCT-116 colon) was over 100 µM. It also gave a TGI (KM12 colon) of 23.8 µM, a TGI (ACHN renal) of over 100 µM and a TGI (UO-31 renal) of 42.4 µM. The TGI (SNB-19 CNS) was over 100 µM, the TGI (NCI-H460 lung) was over 100 µM and the TGI (SW-620 colon) was over 100 µM. For the same compound, the TGI (HT29 colon) was over 100 µM, the TGI (MALME-3M melanoma) was 60 µM and the TGI (NCI-H23 lung) was over 100 µM. The TGI (CCRF-CEM leukemia) was over 100 µM, the TGI (HCC-2998 colon) was over 100 µM and the TGI (COLO 205 colon) was over 100 µM. The TGI (TK-10 renal) was over 100 µM, the TGI (OVCAR-3 ovarian) was over 100 µM and the TGI (NCI-H522 lung) was over 100 µM. The TGI (OVCAR-4 ovarian) was over 100 µM, the TGI (MDA-MB-231 breast) was over 100 µM and the TGI (SF-295 CNS) was over 100 µM. The TGI (SK-MEL-5 melanoma) was over 100 µM, the TGI (T-47D breast) was 41.2 µM and the TGI (K-562 leukemia) was over 100 µM. For the same compound, the TGI (UACC-257 melanoma) was over 100 µM, the TGI (SK-MEL-28 melanoma) was over 100 µM and the TGI (SF-268 CNS) was 39.2 µM. It also gave a TGI (IGROV1 ovarian) of over 100 µM, a TGI (786-0 renal) of over 100 µM and a TGI (HOP-62 NSCLC) of over 100 µM. For the same compound, the TGI (MOLT-4 leukemia) was over 100 µM, the TGI (NCI/ADR-RES ovarian) was over 100 µM and the TGI (OVCAR-8 ovarian) was over 100 µM. The TGI (LOX IMVI melanoma) was over 100 µM, the TGI (SN12C renal) was over 100 µM and the TGI (MDA-MB-435) was 76.1 µM. The TGI (MDA-N) was over 100 µM, the TGI (HCT-15 colon) was over 100 µM and the TGI (BT-549 breast) was 63.9 µM. For the same compound, the TGI (U251 CNS) was 54.2 µM, the TGI (HL-60(TB) leukemia) was over 100 µM and the TGI (A549 NSCLC) was over 100 µM.
